In this assay the test system is Staphylococcus aureus ATCC 29213 (MSSA) and 13B-382 (MRSA). As to the kind of experiment: Pharmacokinetic/pharmacodynamic analysis in neutropenic mouse thigh infection model. Type of assay: in vivo, ICR mouse. To be noted: oral administration. How it is done:
For the compound of formula 1, pharmacokinetic/pharmacodynamic experiments were conducted using a mouse infection model. To this end, experiments were conducted with Staphylococcus aureus ATCC 29213 (MSSA, standard strain) and 13B-382 (MRSA, clinical strain). As a medium, Mueller-Hinton broth or Cation-adjusted Mueller-Hinton broth was used. For the susceptibility test (minimum inhibitory concentration (MIC)), the compound of formula 1 was used.
An aseptic (Specific pathogen free, SPF) female, 6 weeks old (23˜27 g) ICR mouse (Orient Bio Inc, Gapyeong, Korea) was used, and the experiment was carried out in compliance with the regulations and procedures with the permission of the Ethics committees for animal experiments in accordance with the Animal Protection Act and the Laboratory Animal Act. […]
After 24 hours of drug administration, the mouse was euthanized with carbon dioxide gas and its thigh was separated, put in physiological saline, and cut finely with a homogenizer (Kinematica AG/Polytron®). […] The number of viable cells was counted and recorded. The results were expressed as log10 CFU/thigh, and the measurement limit of the number of viable cells in the laboratory was 1×10^2 CFU/thigh.
T/MIC was evaluated as an index to determine the effect of antibiotics in combination with the antimicrobial action and pharmacokinetic results according to the antimicrobial dosage and administration. […]

In the case of `Cc1c(N)cccc1Cn1ccc(OCCc2cccs2)cc1=O` [Compound of formula 1, 1-(3-amino-2-methylbenzyl)-4-(2-thiophen-2-yl-ethoxy)-1H-pyridin-2-one], the bacteria eradicated entry (T/MIC value approximately 20% or higher) is reported as “more than 99.9%”. Also, the “T/MIC value at which more than 99.9% of bacteria were eradicated” value (24 hours) is recorded as no less than 20%.

The values are drawn from patent US20220031607A1, “INJECTION COMPOSITION CONTAINING FAB I INHIBITOR, AND PREPARATION METHOD THEREFOR” (CRYSTALGENOMICS, INC., priority 2019, published 2022).
